Literature values, collected in patent US9328120B2, “6-cycloalkyl-pyrazolopyrimidinones for the treatment of CNS disorders” (Boehringer Ingelheim International GmbH, priority 2010, dated 2016).

What was measured:
human PDE9A = human PDE9A (Homo sapiens (Human), UniProt O76083); details: for inhibition on the isolated enzyme: concentrations of up to 100 micromolar (μM)
Murine PDE9A = Murine PDE9A (Mus musculus (Mouse), UniProt O70628); details: concentrations below 200 micromolar
Murine PDE9A, sequence (O70628 whole entry): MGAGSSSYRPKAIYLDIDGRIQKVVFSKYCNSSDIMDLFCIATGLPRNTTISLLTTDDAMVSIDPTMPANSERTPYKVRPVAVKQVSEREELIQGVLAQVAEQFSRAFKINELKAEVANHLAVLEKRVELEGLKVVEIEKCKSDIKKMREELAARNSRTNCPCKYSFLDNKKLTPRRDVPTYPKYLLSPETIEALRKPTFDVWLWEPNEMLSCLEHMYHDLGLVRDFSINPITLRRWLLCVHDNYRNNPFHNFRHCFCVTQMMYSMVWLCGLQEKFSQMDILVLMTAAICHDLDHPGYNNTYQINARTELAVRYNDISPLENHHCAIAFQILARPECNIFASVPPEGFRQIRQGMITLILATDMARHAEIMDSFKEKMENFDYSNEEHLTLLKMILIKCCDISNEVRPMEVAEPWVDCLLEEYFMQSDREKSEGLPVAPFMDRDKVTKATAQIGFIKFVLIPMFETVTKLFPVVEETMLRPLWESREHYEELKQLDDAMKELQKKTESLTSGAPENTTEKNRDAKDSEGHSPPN

human PDE9A, sequence (O76083 whole entry): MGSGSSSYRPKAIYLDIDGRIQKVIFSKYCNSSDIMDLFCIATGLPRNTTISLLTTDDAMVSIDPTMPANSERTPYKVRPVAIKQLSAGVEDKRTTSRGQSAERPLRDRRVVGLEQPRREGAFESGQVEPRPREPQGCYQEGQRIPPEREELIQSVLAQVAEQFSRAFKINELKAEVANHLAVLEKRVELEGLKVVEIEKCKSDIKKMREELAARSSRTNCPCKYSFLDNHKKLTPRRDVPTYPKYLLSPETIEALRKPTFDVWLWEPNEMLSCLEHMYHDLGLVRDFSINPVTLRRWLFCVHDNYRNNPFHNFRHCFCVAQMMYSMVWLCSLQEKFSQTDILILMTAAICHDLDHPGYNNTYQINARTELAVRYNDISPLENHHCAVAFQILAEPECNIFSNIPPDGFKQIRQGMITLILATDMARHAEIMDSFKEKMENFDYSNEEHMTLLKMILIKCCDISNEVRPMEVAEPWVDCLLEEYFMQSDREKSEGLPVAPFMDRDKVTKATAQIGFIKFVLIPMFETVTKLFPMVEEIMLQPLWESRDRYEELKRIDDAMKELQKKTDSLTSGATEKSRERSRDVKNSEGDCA

SMILES | inhibition on the isolated enzyme (human PDE9A) | inhibition of murine PDE9A (Murine PDE9A) | IC50 (human PDE9A; isolated human PDE9A enzyme)
CC(C)Cn1c(=O)n(C)c(=O)c2[nH]cnc21 [IBMX] | no inhibition | not inhibited | –
CC(=O)Nc1ccc(-c2c[nH]c(=O)cn2)cc1 [SKF94120] | no inhibition | – | –
OCCN(CCO)c1nc(N2CCCCC2)c2nc(N(CCO)CCO)nc(N3CCCCC3)c2n1 [dipyridamole] | no inhibition | – | –
COc1ccc(C2CNC(=O)C2)cc1OC1CCCC1 (stereo not shown) [rolipram] | no inhibition | – | –
CCOC(=O)C1=C[C@]2(CC)CCCN3CCc4c(n1c1ccccc41)[C@@H]32 [vinpocetine] | no inhibition | – | –
CCCOc1ccccc1-c1nc2nn[nH]c2c(=O)[nH]1 [zaprinast] | – | – | 35 micromolar (μM)
